pIC50, pKi: −log10 of the molar value.
What was measured:
[1] = molecular target: Alpha-2B adrenergic receptor (Homo sapiens) (UniProt P18089); test: Agonist activity at recombinant human alpha2b receptor expressed in HEK293 cells assessed as increase in cAMP accumulation at 10 uM measured after 30 mins by HTRF assay relative to control; assay type: functional, cell-based
[2] = Renal clearance in dog at 0.3 mg/kg, iv via infusion for 0.5 hrs; assay type: ADME, organism-based, Canis lupus familiaris, Kidney; details: in vivo
[3] = molecular target: Glucocorticoid receptor (Homo sapiens) (UniProt P04150); test: Displacement of [3H]dexamethasone from human glucocorticoid receptor at 10 uM after 360 mins by scintillation counting method
[4] = molecular target: High affinity choline transporter 1 (Homo sapiens, UniProt Q9GZV3); test: Displacement of [3H]hemicholinium-3 from recombinant human choline transporter after 60 mins by scintillation counting method
[5] = Unbound clearance in iv dosed mouse plasma; assay type: ADME, organism-based; details: in vivo
[6] = molecular target: Beta-2 adrenergic receptor (Homo sapiens) (UniProt P07550); test: Antagonist activity at recombinant human beta2 receptor expressed in CHOK1 cells assessed as inhibition of isoproterenol-induced cAMP accumulation at 10 uM after 30 mins by HTRF assay relative to control; assay type: functional, cell-based
[7] = molecular target: Mu-type opioid receptor (Homo sapiens) (UniProt P35372); test: Displacement of [3H]DAMGO from recombinant human MOR at 10 uM after 120 mins by scintillation counting method
[8] = molecular target: T1, Voltage-gated inwardly rectifying potassium channel KCNH2 (Homo sapiens, UniProt Q12809); test: Displacement of [3H]Dofetilide from recombinant human ERG after 60 mins by scintillation counting method
[9] = Renal clearance in rat at 0.3 mg/kg, iv via infusion for 1 hr; assay type: ADME, organism-based, Kidney; details: in vivo
[10] = molecular target: 5-hydroxytryptamine receptor 1B (Homo sapiens, UniProt P28222); test: Agonist activity at human 5-HT1B receptor expressed in HeLa cells assessed as increase in cAMP accumulation at 10 uM measured after 20 mins by HTRF method relative to control; assay type: functional, cell-based
[11] = Lipophilicity, log D of the compound at pH 7.4; assay type: physicochemical; details: buffer
[12] = molecular target: Muscarinic acetylcholine receptor M3 (Homo sapiens) (UniProt P20309); test: Agonist activity at human M3 receptor expressed in CHOK1 cells assessed as increase in calcium flux at 10 uM by fluorimetric method relative to control; assay type: functional, cell-based
Homo sapiens = organism: Homo sapiens; test: Inhibition of sodium channel site2 (unknown origin) at 10 uM by radioligand binding assay relative to control
Rattus norvegicus [13] = organism: Rattus norvegicus; test: Displacement of [3H]GABA from rat brain GABA transporter at 10 uM after 30 mins by scintillation counting method
[14] = molecular target: Muscarinic acetylcholine receptor M2 (Homo sapiens) (UniProt P08172); test: Agonist activity at recombinant human M2 receptor expressed in CHOK1 cells assessed as increase in cAMP accumulation at 10 uM measured after 10 mins by HTRF assay relative to control; assay type: functional, cell-based
[15] = molecular target: Sodium-dependent noradrenaline transporter (Homo sapiens, UniProt P23975); test: Displacement of [3H]nisoxetine from recombinant human norepinephrine transporter at 10 uM after 120 min by scintillation counting method
[16] = Protein binding in mouse plasma assessed as fraction unbound; assay type: ADME, cell-free
[17] = Half-life in rat at 0.3 mg/kg, iv via infusion for 1 hr; assay type: ADME, organism-based; details: in vivo
[18] = Volume of distribution at steady state in dog at 0.3 mg/kg, iv via infusion for 0.5 hrs; assay type: ADME, organism-based, Canis lupus familiaris; details: in vivo, read-out: Vdss
[19] = Intrinsic clearance in rat hepatocytes assessed per million cells; assay type: ADME, cell-based, Hepatocyte; details: read-out: CLH
[20] = Intrinsic clearance in mouse hepatocytes assessed per million cells; assay type: ADME, cell-based, Hepatocyte; details: read-out: CLH
[21] = molecular target: D(1A) dopamine receptor (Homo sapiens) (UniProt P21728); test: Antagonist activity at recombinant human D1 receptor expressed in CHOK1 cells assessed as inhibition of dopamine-induced cAMP accumulation at 10 uM after 30 mins by HTRF assay relative to control; assay type: functional, cell-based
[22] = molecular target: T2, Sodium channel protein type 5 subunit alpha (Homo sapiens, UniProt Q14524); test: Inhibition of human Nav1.5 by Q-patch clamp electrophysiology method
[23] = Solubility of the compound in aqueous buffer at pH 7.1; assay type: physicochemical
[24] = molecular target: Angiotensin-converting enzyme (Homo sapiens) (UniProt P12821); test: Inhibition of ACE (unknown origin) at 10 uM by radioligand binding assay relative to control
[25] = molecular target: Sodium channel protein type 1 subunit alpha (Homo sapiens, UniProt P35498); test: Inhibition of human Nav1.1 expressed in HEK cells by patch clamp electrophysiology method; assay type: cell-based
[26] = molecular target: Histamine H3 receptor (Homo sapiens) (UniProt Q9Y5N1); test: Agonist activity at recombinant human H3 receptor expressed in CHOK1 cells assessed as increase in cAMP accumulation at 10 uM measured after 10 mins by HTRF assay relative to control; assay type: functional, cell-based
monoamine oxidase = monoamine oxidase (Homo sapiens, UniProt P21397+P27338); test: Inhibition of monoamine oxidase (unknown origin) at 10 uM relative to control; assay type: protein assay
[27] = Solubility of the compound in aqueous buffer at pH 5.5; assay type: physicochemical
[28] = Protein binding in non-human primate plasma assessed as fraction unbound at 2 uM; assay type: ADME, cell-free, Macaca mulatta; details: rhesus monkey
[29] = Clearance in dog plasma at 0.3 mg/kg, iv via infusion for 0.5 hrs; assay type: ADME, organism-based, Canis lupus familiaris
[30] = molecular target: Muscarinic acetylcholine receptor M3 (Homo sapiens) (UniProt P20309); test: Antagonist activity at human M3 receptor expressed in CHOK1 cells assessed as inhibition of acetylcholine-induced calcium flux at 10 uM by fluorimetric method relative to control; assay type: functional, cell-based
[31] = molecular target: cGMP-inhibited 3',5'-cyclic phosphodiesterase 3B (Homo sapiens) (UniProt Q13370); test: Inhibition of recombinant human PDE3B at 10 uM using [3H]cAMP as substrate measured after 20 mins by scintillation counting method relative to control
[32] = molecular target: Epidermal growth factor receptor (Homo sapiens) (UniProt P00533); test: Displacement of [125I] EGF from EGFR in human A431 cells at 10 uM after 60 mins by scintillation counting method; assay type: cell-based
[33] = molecular target: Beta-2 adrenergic receptor (Homo sapiens) (UniProt P07550); test: Agonist activity at recombinant human beta2 receptor expressed in CHOK1 cells assessed as increase in cAMP accumulation at 10 uM after 30 mins by HTRF assay relative to control; assay type: functional, cell-based
[34] = molecular target: T2, Sodium channel protein type 5 subunit alpha; test: Inhibition of human Nav1.5 expressed in HEK cells by automated patchXpress electrophysiology method; assay type: ADME, cell-based
[35] = Protein binding in dog plasma assessed as fraction unbound at 2 uM; assay type: ADME, cell-free, Canis lupus familiaris
[36] = molecular target: T1, Voltage-gated inwardly rectifying potassium channel KCNH2; test: Inhibition of human ERG by PatchXpress electrophysiology method
Rattus norvegicus [37] = organism: Rattus norvegicus; test: Displacement of [3H]D888 from L-type calcium channel verapamil binding site in rat brain at 10 uM measured after 120 mins by scintillation counting method
[38] = molecular target: Cannabinoid receptor 1 (Homo sapiens) (UniProt P21554); test: Antagonist activity at recombinant human CB1 receptor expressed in CHOK1 cells assessed as inhibition of CP 55940-induced cAMP accumulation at 10 uM after 20 mins by HTRF assay relative to control; assay type: functional, cell-based
[39] = Inhibition of cynomolgus monkey Nav1.7 expressed in HEK cells by automated patchXpress electrophysiology method; assay type: cell-based; details: Macaca fascicularis, HEK293

T1 sequence (Q12809 whole entry, the tested form may be a part): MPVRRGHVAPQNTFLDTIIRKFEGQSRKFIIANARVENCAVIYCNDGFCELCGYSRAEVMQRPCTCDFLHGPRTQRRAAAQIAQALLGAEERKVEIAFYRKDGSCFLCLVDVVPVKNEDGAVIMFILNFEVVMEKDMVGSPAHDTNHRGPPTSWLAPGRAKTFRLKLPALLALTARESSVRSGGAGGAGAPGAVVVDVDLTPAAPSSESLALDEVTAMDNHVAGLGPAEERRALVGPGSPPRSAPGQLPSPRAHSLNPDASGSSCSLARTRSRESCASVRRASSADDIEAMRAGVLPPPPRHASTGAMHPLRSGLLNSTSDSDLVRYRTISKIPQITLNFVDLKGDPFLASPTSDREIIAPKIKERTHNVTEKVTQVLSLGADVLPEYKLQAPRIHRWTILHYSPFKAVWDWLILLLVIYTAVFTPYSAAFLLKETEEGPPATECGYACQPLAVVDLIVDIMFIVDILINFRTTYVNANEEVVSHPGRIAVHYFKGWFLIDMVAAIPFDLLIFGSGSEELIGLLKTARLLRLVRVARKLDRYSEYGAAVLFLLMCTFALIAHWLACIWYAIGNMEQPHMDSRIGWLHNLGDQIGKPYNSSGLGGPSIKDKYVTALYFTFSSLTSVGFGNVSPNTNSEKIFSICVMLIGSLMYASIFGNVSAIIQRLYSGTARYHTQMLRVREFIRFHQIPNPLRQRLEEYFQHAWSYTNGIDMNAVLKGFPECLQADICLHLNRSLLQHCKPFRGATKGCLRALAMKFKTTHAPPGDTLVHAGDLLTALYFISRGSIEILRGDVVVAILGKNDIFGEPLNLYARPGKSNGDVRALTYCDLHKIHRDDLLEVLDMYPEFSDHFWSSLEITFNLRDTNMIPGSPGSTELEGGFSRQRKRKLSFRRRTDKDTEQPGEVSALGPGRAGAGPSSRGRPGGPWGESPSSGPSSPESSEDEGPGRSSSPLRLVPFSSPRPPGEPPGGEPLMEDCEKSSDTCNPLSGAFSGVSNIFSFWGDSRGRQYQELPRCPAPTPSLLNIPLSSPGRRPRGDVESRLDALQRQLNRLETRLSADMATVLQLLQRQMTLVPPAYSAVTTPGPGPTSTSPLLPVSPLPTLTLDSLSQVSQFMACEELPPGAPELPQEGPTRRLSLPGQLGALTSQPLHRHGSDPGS
Sequence of Muscarinic acetylcholine receptor M3 (Homo sapiens) (P20309 whole entry, looked up): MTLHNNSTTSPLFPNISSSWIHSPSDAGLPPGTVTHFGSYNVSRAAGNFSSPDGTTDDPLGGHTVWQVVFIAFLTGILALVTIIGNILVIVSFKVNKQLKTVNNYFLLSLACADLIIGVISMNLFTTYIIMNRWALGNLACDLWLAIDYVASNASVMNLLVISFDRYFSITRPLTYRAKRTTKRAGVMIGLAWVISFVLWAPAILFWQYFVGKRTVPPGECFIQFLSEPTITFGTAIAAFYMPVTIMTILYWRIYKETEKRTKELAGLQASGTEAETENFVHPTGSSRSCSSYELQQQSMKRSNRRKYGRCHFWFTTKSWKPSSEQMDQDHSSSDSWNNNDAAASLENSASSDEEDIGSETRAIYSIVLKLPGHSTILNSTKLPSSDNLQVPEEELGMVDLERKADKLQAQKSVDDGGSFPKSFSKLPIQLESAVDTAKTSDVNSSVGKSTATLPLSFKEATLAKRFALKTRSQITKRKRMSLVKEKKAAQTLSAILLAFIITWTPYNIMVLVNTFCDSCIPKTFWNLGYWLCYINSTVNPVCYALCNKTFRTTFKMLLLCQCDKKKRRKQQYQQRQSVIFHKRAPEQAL
Sequence of Beta-2 adrenergic receptor (Homo sapiens) (P07550 whole entry, looked up): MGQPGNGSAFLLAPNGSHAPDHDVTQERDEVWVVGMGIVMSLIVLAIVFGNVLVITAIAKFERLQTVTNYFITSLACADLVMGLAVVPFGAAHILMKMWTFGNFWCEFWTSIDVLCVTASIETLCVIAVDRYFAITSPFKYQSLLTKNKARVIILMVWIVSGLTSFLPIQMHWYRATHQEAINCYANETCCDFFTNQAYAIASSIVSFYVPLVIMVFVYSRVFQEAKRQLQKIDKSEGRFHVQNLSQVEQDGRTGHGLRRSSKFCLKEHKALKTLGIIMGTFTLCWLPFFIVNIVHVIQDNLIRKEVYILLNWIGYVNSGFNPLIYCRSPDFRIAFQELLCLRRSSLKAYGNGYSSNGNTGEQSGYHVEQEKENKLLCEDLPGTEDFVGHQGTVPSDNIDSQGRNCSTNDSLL
Sequence of High affinity choline transporter 1 (Q9GZV3 whole entry): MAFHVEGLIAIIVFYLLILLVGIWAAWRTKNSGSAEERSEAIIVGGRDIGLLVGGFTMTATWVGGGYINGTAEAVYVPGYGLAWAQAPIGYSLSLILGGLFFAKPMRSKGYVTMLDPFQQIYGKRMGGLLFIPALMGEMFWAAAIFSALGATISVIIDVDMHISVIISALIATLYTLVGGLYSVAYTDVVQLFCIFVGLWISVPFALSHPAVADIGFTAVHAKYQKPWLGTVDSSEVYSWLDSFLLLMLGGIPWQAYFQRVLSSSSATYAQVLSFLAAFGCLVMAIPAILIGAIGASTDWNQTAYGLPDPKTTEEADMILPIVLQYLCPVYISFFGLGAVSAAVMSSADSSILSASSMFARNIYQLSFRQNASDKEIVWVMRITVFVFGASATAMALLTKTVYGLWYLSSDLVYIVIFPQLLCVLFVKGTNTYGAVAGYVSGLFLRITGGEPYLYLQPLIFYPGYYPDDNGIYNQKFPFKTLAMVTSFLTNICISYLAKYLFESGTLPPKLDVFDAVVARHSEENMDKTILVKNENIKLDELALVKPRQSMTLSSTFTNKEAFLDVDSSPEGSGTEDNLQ
T2 sequence (Q14524 whole entry): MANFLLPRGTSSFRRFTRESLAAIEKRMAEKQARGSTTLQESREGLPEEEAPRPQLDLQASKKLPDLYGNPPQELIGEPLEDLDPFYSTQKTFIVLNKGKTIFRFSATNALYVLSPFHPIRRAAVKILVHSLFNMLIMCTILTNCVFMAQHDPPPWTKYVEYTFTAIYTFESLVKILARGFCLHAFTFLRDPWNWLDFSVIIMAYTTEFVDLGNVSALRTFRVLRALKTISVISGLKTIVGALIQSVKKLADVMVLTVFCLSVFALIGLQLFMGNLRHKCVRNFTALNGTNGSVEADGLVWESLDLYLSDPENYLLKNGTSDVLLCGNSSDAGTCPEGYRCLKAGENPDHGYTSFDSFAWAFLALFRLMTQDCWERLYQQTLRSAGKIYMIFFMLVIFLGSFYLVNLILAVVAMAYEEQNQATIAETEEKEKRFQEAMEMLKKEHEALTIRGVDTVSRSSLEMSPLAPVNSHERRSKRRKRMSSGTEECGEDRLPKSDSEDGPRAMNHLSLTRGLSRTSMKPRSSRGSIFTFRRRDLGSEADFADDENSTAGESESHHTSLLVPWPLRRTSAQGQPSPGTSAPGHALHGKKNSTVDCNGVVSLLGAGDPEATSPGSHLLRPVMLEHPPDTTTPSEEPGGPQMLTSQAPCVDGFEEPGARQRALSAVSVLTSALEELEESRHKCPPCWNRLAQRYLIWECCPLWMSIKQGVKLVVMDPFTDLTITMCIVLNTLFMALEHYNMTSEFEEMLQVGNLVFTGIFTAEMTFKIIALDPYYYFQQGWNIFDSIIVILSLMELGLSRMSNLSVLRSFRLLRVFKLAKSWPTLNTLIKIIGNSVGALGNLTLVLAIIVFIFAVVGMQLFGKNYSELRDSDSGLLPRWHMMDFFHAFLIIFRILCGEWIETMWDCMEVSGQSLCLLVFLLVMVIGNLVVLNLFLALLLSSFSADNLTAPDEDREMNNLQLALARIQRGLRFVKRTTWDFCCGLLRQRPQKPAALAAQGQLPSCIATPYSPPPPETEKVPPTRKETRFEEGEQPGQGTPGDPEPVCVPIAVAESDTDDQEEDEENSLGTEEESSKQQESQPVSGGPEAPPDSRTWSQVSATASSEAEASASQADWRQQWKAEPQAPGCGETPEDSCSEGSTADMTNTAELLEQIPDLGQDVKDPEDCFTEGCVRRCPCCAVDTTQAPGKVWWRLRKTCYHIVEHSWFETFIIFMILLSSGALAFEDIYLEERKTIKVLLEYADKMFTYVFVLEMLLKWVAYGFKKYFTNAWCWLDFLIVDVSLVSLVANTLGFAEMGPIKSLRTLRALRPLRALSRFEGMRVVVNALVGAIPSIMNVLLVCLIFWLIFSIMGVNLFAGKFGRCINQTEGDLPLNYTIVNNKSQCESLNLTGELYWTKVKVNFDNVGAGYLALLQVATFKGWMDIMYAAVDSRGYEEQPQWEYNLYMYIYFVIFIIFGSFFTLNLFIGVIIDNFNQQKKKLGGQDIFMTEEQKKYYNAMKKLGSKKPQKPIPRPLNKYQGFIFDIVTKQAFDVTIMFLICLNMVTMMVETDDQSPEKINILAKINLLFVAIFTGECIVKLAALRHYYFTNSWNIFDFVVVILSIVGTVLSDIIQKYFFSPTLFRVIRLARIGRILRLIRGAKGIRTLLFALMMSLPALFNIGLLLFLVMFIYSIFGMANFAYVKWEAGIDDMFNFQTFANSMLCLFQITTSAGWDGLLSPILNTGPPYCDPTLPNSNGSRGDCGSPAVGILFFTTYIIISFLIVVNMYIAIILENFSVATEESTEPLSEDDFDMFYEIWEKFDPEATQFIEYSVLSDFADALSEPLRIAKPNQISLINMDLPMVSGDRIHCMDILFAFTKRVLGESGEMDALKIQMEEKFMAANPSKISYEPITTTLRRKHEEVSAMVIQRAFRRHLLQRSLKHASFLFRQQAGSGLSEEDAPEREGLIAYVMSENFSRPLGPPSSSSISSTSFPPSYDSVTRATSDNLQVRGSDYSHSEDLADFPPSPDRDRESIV

Compound `N#Cc1cc(S(=O)(=O)Nc2ncns2)ccc1Oc1ccc(-c2cccc(C(F)(F)F)c2)cc1-c1ccnc(CNCCC2CCNCC2)c1` has an Activity [1] of -2%, a CL renal at 0.5 h [2] of 0.072 mL/h/kg and an inhibition [3] of 36.1%. For the same compound, the pIC50 [4] was 6.92, the pKi [4] was 7.17 and the CL free [5] was 779340 mL/h/kg. The inhibition [6] was 11%, the inhibition [7] was 46% and the pKi [8] was 5.96. For the same compound, the CL renal at 1 h [9] was 1.93 mL/h/kg, the Activity [10] was 141% and the logD [11] was 2.37 to 2.4. For the same compound, the Activity [12] was 8%, the inhibition (Homo sapiens) was 92% and the inhibition (Rattus norvegicus [13]) was 5%. The Activity [14] was -9%, the inhibition [15] was 80% and the fraction unbound [16] was 0.00281. For the same compound, the half-life [17] was 12.6 min, the Vd [18] was 0.46 L/kg and the hepatocyte CLint [19] was < 6 µL/min/1e6 cells. For the same compound, the hepatocyte CLint [20] was < 3 µL/min/1e6 cells, the inhibition [21] was 30% and the pIC50 [22] was 4.89. The solubility [23] was > 2570 µg/mL, the inhibition [24] was -8% and the pIC50 [25] was 6.50 to 6.51. For the same compound, the Activity [26] was 7%, the inhibition at 10 µM (monoamine oxidase) was 16% and the solubility [27] was > 1840 µg/mL. For the same compound, the fraction unbound at 2 µM [28] was 0.001, the clearance [29] was 1070 mL/h/kg and the inhibition [30] was 29%. The inhibition [31] was -1%, the inhibition [32] was 35% and the Activity [33] was 1%. For the same compound, the pIC50 [34] was 5.59 to 5.70, the fraction unbound at 2 µM [35] was 0.003 and the pIC50 [36] was < 4.60. The inhibition (Rattus norvegicus [37]) was 35%, the inhibition [38] was 11% and the pIC50 [39] was > 10.52.
